How the values were obtained:
[1] = test system: eight pancreatic cancer cells; assay: BrdU-ELISA proliferation assay, IIIg alone and with oxaliplatin; type: cell-based, human
Description: The effect of IIIg alone and in combination with oxaliplatin on the proliferation of eight pancreatic cancer cells is determined using a BrdU-ELISA assay.
Assessment of synergy is performed according to the method described by Chou and Talalay.

[2] = test system: human SW620 colon adenocarcinoma; assay: Human SW620 colon adenocarcinoma xenograft model in nude mice; type: in vivo
Description: The animals are fed ad libitu water (reverse osmosis, 1 ppm Cl) and NIH 31 Modified and Irradiated Lab Diet® consisting of 18.0% crude protein, 5.0% crude fat, and 5.0% crude fiber. The mice are housed on irradiated ALPHA-dri® bed-o-cobs® Laboratory Animal Bedding in static microisolators on a 12-hour light cycle at 21-22° C. (70-72° F.) and 40-60% humidity. PRC specifically complies with the recommendations of the Guide for Care and Use of Laboratory Animals with respect to restraint, husbandry, surgical procedures, feed and fluid regulation, and veterinary care. […]
The human SW620 colon adenocarcinoma utilized in the present study is maintained in nude mice by serial engraftment. […] Tumors are monitored twice weekly and then daily as their volumes approached 80-120 mm^3. […] Tumor size, in mm3, is calculated from: […]
Tumors are calipered twice weekly for the duration of the study. […] The time to endpoint (TTE) for each mouse is calculated according to the following equation: […]
where TTE is expressed in days, endpoint volume is in mm3, b is the intercept, and m is the slope of the line obtained by linear regression of a log-transformed tumor growth data set. […] The calculated TTE is usually less than the day on which an animal is euthanized for tumor size. […]

COLO357FG and MiaPaCa-2 = assay: Combination with oxaliplatin, BrdU proliferation, Chou and Talalay's method; type: cell-based, human; details: combination of IIIg with oxaliplatin
Description: This example provides the assessment of IIIg in combination with an anti-tumor agent, oxaliplatin, on the proliferation of two human pancreatic tumor cell lines, COLO357FG and MiaPaCa-2, in vitro. Cell proliferation is measured by BrdU incorporation as described in detail hereinabove. The experiments are performed according to Chou and Talalay's method (Chou T C, Talalay P. Quantitative analysis of dose-effect relationships: the combined effects of multiple drugs or enzyme inhibitors. Adv Enzyme Regul 1984, 22: 27-55).

O=c1ccc2c(I)c([N+](=O)[O-])ccc2o1 [IIIg, 5-iodo-6-nitro-benzopyrone]
IC50 ([1]; Homo sapiens, Pancreatic cancer cell, IIIg alone, range over eight PC cell lines, read-out: IC50 (growth of eight PC cell lines)): 5 to 10 µM | Potentiation of oxaliplatin cytotoxicity ([1]; different pancreatic cancer cell models): potentiates oxaliplatin cytotoxicity | Survival of tumor-bearing animals ([2]; biweekly intraperitoneal injection, 50 mg/kg): prolongs survival | Tumor growth ([2]; once-daily or twice-weekly administration): inhibits tumor growth | Synergy with oxaliplatin on proliferation (COLO357FG and MiaPaCa-2): synergizes with oxaliplatin

Source: patent publication US20090149417A1, “Methods and compositions for the treatment of cancer using benzopyrone-type PARP inhibitors” (priority 2007, published 2009)
